Converted amounts (≈) assume the structure as drawn. Where two headings read alike, the source gives them in different places.

For orientation: pKa means the negative logarithm of the acid dissociation constant. A higher pKa goes with a weaker acid or stronger base. Broadly, the Km is the concentration of substrate that gives half-maximal velocity. The term logP denotes a log measure of how a compound divides between an organic and an aqueous phase. Higher therefore signals higher lipophilicity. The Ki is the equilibrium dissociation constant of an inhibitor or competing ligand from its target. A lower Ki goes with a stronger hold on the target.

Series [1] can be described thus: Equilibrium solubility in aqueous and bio-relevant media. It counts as physicochemical. The settings on record: fed state simulated intestinal fluid, pH 5.0.
A short description of series [2]: Acid dissociation constant pKa. The settings on record: mean measured, WG, monoprotic base. Format: physicochemical.
Series [3] addresses T1, CYP3A4 (Homo sapiens, UniProt P08684). Kind of series: Enzyme kinetics. The note with it: human liver microsomes.
The conditions of series [4]: pH 1.1; ADAM model input; ref Taupitz 2013 42; cited from earlier work.
The conditions of series [5]: 100 mg i.v. dose; cited from earlier work.
A short description of series [6]: Octanol-water partition coefficient logP / logD. Format: physicochemical.
A short description of the next series: WG PBPK model. Also on record: species or system human.
Series [7] has as its target T1, CYP3A4. It counts as biochemical.
The conditions of series [8]: tube adsorption method; ref Isoherranen 2004 (34); cited from earlier work.
The nature of series [9]: Fraction unbound in human liver microsomes. It counts as in vitro ADME. The note with it: equilibrium dialysis at 0.05-[…], calculated at […], WG.
The nature of series [10]: Blood/plasma partition ratio. It counts as in vitro ADME. The note with it: WG.
[11] abbreviates: first-order absorption model, capsule fasted, adjusted to fit observed data.

T1 sequence (P08684 whole entry): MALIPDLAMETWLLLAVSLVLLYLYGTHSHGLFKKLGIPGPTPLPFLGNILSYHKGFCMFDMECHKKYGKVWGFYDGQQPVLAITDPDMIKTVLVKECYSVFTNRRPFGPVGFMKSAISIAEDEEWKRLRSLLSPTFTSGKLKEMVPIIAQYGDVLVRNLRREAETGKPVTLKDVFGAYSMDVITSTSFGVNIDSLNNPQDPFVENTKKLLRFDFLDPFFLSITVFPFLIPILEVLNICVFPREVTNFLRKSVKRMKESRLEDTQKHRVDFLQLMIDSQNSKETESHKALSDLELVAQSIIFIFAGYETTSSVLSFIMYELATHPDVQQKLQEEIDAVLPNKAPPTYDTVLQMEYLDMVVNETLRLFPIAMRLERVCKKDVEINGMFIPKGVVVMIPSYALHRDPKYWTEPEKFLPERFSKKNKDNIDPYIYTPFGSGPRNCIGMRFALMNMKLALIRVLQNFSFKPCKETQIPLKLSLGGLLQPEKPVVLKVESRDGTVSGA

For `CCC(C)n1ncn(-c2ccc(N3CCN(c4ccc(OCC5COC(Cn6cncn6)(c6ccc(Cl)cc6Cl)O5)cc4)CC3)cc2)c1=O` (stereo not shown) [ITZ, itraconazole], in series [1], the “Solubility in FeSSIF” value was 5 µg/mL (≈ 7.09 µM). Besides, the pKa in series [2] stood at 3.64. For the same compound, the Km at CYP3A4 [3] turned out to be 0.0233 µM. Besides, the Intrinsic solubility in series [4] is 150 µg/mL. Besides, in series [5], the “CL observed in vivo” value is reported as ~ 21 L/hour. Moreover, the logP in series [6] amounted to 4.9. Besides, the “Active uptake into hepatocyte (scaling factor)” value in the series “WG PBPK model” (estimated to best describe ITZ IV CL) is 3.5. Moreover, in the series “WG PBPK model” (setting [11]), the Fa turned out to be 0.5 and the ka worked out at 0.2 h⁻¹.

As to `O=c1[nH]ncn1-c1ccc(N2CCN(c3ccc(OCC4COC(Cn5cncn5)(c5ccc(Cl)cc5Cl)O4)cc3)CC2)cc1` (stereo not shown) [ND-ITZ], at CYP3A4 [7] (apparent Ki in microsomes with WG fu,mic vs literature), the “Fold less potent than previously reported (CYP3A4 inhibition)” value is given as “approximately 40 fold”. Further, the “fu,mic ([…] HLM)” value in series [8] was 0.026; in series [9] it was 0.70.

Turning to `CC(O)C(C)n1ncn(-c2ccc(N3CCN(c4ccc(OCC5COC(Cn6cncn6)(c6ccc(Cl)cc6Cl)O5)cc4)CC3)cc2)c1=O` (stereo not shown) [OH-ITZ, hydroxyitraconazole], in series [10], the B/P is 0.55. In series [2] (pKa), this compound had a pKa of 4. The same compound had a Ki at CYP3A4 [7] of 8.2 nM. Besides, the logP in series [6] came out at 4.1.

The values above are taken from article PMC6765698 (CPT: Pharmacometrics & Systems Pharmacology, 2019).
